Laboratory results published in patent EP4603105A1, “PHARMACEUTICAL COMPOSITION CONTAINING CYCLIC COMPOUND HAVING SELECTIVE KRAS INHIBITORY EFFECT AGAINST HRAS AND NRAS” (CHUGAI SEIYAKU KABUSHIKI KAISHA, priority 2022, dated 2024).

Assays:
[1] = target: GDP-bound KRAS wild-type protein (Homo sapiens, UniProt P01116); assay: Binding to KRAS by surface plasmon resonance (SPR), dissociation constant KD; conditions: Single Cycle Kinetics
Summary of the method: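 Single-cycle kinetics on GDP-loaded biotin-Avi RAS captured to ~100–300 RU; 75 s ascending injections, 100 µL/min, 30°C. HBS pH 7.4 + 10 mM MgCl2/10 µM GDP/4% DMSO. 1:1 fit, KD.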

HRAS wild-type protein = HRAS wild-type protein (Homo sapiens, UniProt P01112); assay: Binding to HRAS by surface plasmon resonance (SPR), KD and KD ratio to KRAS; conditions: ratio of KD for HRAS wild-type protein to KD for KRAS
Summary of the method: (§1)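 Affinity is measured by surface plasmon resonance at 30°C against captured, GDP-loaded RAS carrying a biotinylated Avi tag. Compounds are titrated by single-cycle kinetics, and KD comes from a 1:1 fit.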

[2] = system: human lung cancer strain NCI-H441; assay: NCI-H441 cell proliferation inhibitory activity (CellTiter-Glo, 4 days); assay type: cell-based; conditions: NCI-H441 cells, 4 days, read-out: NCl-H441 IC50
Summary of the method: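 Readout: […] after the ATP-based reagent. Compound: serial dilutions in dimethyl sulfoxide.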

[3] = target: GDP-bound NRAS wild-type protein (Homo sapiens, UniProt P01111); assay: Binding to NRAS by surface plasmon resonance (SPR), KD and KD ratio to KRAS; conditions: ratio of KD for GDP-bound NRAS wild-type protein to KD for KRAS
Summary of the method: as §1

GDP-bound NRAS wild-type protein, sequence (P01111 whole entry): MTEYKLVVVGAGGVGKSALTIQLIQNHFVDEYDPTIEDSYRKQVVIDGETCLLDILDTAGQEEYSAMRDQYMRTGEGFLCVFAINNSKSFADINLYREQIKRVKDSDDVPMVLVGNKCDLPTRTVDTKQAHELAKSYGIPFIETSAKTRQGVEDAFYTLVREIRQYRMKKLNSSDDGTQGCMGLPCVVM
GDP-bound KRAS wild-type protein, sequence (P01116 1-188 isoform P01116-2): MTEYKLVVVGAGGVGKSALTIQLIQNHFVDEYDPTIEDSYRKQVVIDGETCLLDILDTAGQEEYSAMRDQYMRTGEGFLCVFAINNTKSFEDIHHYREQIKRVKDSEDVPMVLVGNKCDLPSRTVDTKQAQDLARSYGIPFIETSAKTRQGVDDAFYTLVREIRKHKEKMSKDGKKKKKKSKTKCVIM
HRAS wild-type protein, sequence (P01112 whole entry): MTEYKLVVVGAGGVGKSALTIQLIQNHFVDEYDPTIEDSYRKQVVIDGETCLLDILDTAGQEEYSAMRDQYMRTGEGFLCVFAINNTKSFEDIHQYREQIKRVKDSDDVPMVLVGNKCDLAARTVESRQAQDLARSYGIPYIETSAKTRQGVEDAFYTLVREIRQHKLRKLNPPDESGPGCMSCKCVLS

SMILES	Kd [1] [nM]	HRAS /KRAS (HRAS wild-type protein)	IC50 [2] [nM]	NRAS /KRAS [3]
CCC[C@H]1C(=O)N[C@@H](C2CCCC2)C(=O)N(C)CC(=O)N(C)[C@H]2C/C=C\CCN(C2=O)[C@@H](Cc2ccc(C(F)F)cc2)C(=O)N(C)CC(=O)N[C@@H](CCc2cc(F)c(C(F)(F)F)c(OC)c2)C(=O)N2C[C@H](OC(C)C)C[C@H]2C(=O)N(C)C2(CCC2)C(=O)N(C)[C@@H](C(CC)CC)C(=O)N(C)[C@H](C(=O)N(C)C)CC(=O)N1C [PP3499]	0.083	B (a compound having 3 or more and less than 10 is denoted as B)	6.2	A (a compound having 10 or more and less than 20 is denoted as A)
CCc1cc(CC[C@@H]2NC(=O)CN(C)C(=O)[C@H](Cc3ccc(C(F)F)cc3)N3CC/C=C\C[C@@H](C3=O)N(C)C(=O)CN(C)C(=O)[C@H]([C@@H](C)OC)NC(=O)[C@H](CC)N(C)C(=O)C[C@@H](C(=O)N(C)C)N(C)C(=O)[C@H](C(CC)CC)N(C)C(=O)C3(CCC3)N(C)C(=O)[C@@H]3C[C@@H](OC(C)C)CN3C2=O)ccc1C(F)(F)F [PP3500]	0.31	A (a compound having 10 or more and less than 20 is denoted as A)	12.2	A (a compound having 10 or more and less than 20 is denoted as A)
CCCOC[C@H]1C(=O)N[C@@H](C2CCCC2)C(=O)N(CCC)CC(=O)N(C)[C@H]2C/C=C\CCN(C2=O)[C@@H](Cc2ccc(C)cc2)C(=O)N(C)CC(=O)N[C@@H](CCc2ccc(Cl)c(C(F)(F)F)c2)C(=O)N2C[C@H](OC(C)C)C[C@H]2C(=O)N(C)C2(CCC2)C(=O)N(C)[C@@H](C(CC)CC)C(=O)N(C)[C@H](C(=O)N(C)C)CC(=O)N1C [PP3501]	1.1	A (a compound having 10 or more and less than 20 is denoted as A)	102	AA (a compound having 20 or more is denoted as AA)
CCCOC[C@H]1C(=O)N[C@@H]([C@@H](C)CC)C(=O)N(CCC)CC(=O)N(C)[C@H]2C/C=C\CCN(C2=O)[C@@H](Cc2ccc(C(F)F)cc2)C(=O)N(C)CC(=O)N[C@@H](CCc2cc(F)c(C(F)(F)F)c(F)c2)C(=O)N2C[C@H](OC3CCC3)C[C@H]2C(=O)N(C)C2(CCC2)C(=O)N(C)[C@@H](C(CC)CC)C(=O)N(C)[C@H](C(=O)N(C)C)CC(=O)N1C [PP3502]	0.5	A (a compound having 10 or more and less than 20 is denoted as A)	22.4	AA (a compound having 20 or more is denoted as AA)
C#CCN1CC(=O)N(C)[C@H]2C/C=C\CCN(C2=O)[C@@H](Cc2ccc(C(F)F)cc2)C(=O)N(C)CC(=O)N[C@@H](CCc2cc(F)c(C(F)(F)F)c(F)c2)C(=O)N2C[C@H](OCC)C[C@H]2C(=O)N(C)C2(CCC2)C(=O)N(C)[C@@H](C(CC)CC)C(=O)N(C)[C@H](C(=O)N(C)C)CC(=O)N(C)[C@@H](COCCC)C(=O)N[C@@H]([C@@H](C)OC)C1=O [PP3506]	0.73	A (a compound having 10 or more and less than 20 is denoted as A)	12.5	A (a compound having 10 or more and less than 20 is denoted as A)
CCCOC[C@H]1C(=O)N[C@@H](C2CCCC2)C(=O)N(CCC)CC(=O)N(C)[C@H]2C/C=C\CCN(C2=O)[C@@H](Cc2ccc(C(F)F)cc2)C(=O)N(C)CC(=O)N[C@@H](CCc2cc(F)c(C(F)(F)F)c(F)c2)C(=O)N2C[C@H](OCC)C[C@H]2C(=O)N(C)C2(CCC2)C(=O)N(C)[C@@H](C(CC)CC)C(=O)N(C)[C@H](C(=O)N(C)C)CC(=O)N1C [PP3507]	0.9	A (a compound having 10 or more and less than 20 is denoted as A)	29.8	A (a compound having 10 or more and less than 20 is denoted as A)
CCC(CC)[C@H]1C(=O)N(C)[C@H](C(=O)N(C)C)CC(=O)N(C)[C@@H](CC2CC2)C(=O)N[C@@H]([C@H](C)CC)C(=O)NCC(=O)N(C)[C@H]2C/C=C\CCN(C2=O)[C@@H](Cc2ccc(C(F)F)cc2)C(=O)N(C)CC(=O)N[C@@H](CCc2ccc(Cl)c(C(F)(F)F)c2)C(=O)N2C[C@H](OC(C)C)C[C@H]2C(=O)N(C)C2(CC(C)(C)C2)C(=O)N1C [PP3508]	5.4	A (a compound having 10 or more and less than 20 is denoted as A)	57.2	A (a compound having 10 or more and less than 20 is denoted as A)
CCC[C@H]1C(=O)N[C@@H]([C@@H](C)CC)C(=O)N2CCC[C@H]2C(=O)N(C)[C@H]2C/C(F)=C\CCN(C2=O)[C@@H](Cc2ccc(C(F)(F)F)cc2)C(=O)N(C)CC(=O)N[C@@H](CCc2ccc(C(F)(F)F)c(OC)c2)C(=O)N2C[C@H](OCC)C[C@H]2C(=O)N(C)C2(CCC2)C(=O)N(C)[C@@H](C2CCCC2)C(=O)N(C)[C@H](C(=O)N(C)C)CC(=O)N1C [PP3509]	0.41	B (a compound having 3 or more and less than 10 is denoted as B)	9.4	B (a compound having 3 or more and less than 10 is denoted as B)
CCO[C@@H]1C[C@H]2C(=O)NC3(CCCC3)C(=O)N(C)[C@@H](C3CCCC3)C(=O)N(C)[C@H](C(=O)N(C)C)CC(=O)N(C)[C@@H](CC(C)C)C(=O)N[C@@H]([C@@H](C)CC)C(=O)N(C)CC(=O)N(C)[C@H]3C/C(F)=C\CCN(C3=O)[C@@H](Cc3ccc(C)cc3)C(=O)N(C)CC(=O)N[C@@H](CCc3cc(F)c(C(F)(F)F)c(F)c3)C(=O)N2C1 [PP3511]	0.27	B (a compound having 3 or more and less than 10 is denoted as B)	12.3	B (a compound having 3 or more and less than 10 is denoted as B)
CCO[C@@H]1C[C@H]2C(=O)NC3(CCCC3)C(=O)N(C)[C@@H](C3CCCC3)C(=O)N(C)[C@H](C(=O)N(C)C)CC(=O)N(C)[C@@H](CC(C)C)C(=O)N[C@@H]([C@@H](C)CC)C(=O)N(C)CC(=O)N(C)[C@H]3C/C(F)=C\CCN(C3=O)[C@@H](Cc3ccc(C)cc3)C(=O)N(C)CC(=O)N[C@@H](CCc3ccc(C(F)(F)F)c(OC)c3)C(=O)N2C1 [PP3512]	0.25	B (a compound having 3 or more and less than 10 is denoted as B)	8.8	B (a compound having 3 or more and less than 10 is denoted as B)
CCO[C@@H]1C[C@H]2C(=O)NC3(CC(C)(C)C3)C(=O)N(C)[C@@H](C3CCCC3)C(=O)N(C)[C@H](C(=O)N(C)C)CC(=O)N(C)[C@@H](CC(C)C)C(=O)N[C@@H]([C@@H](C)CC)C(=O)N(C)CC(=O)N(C)[C@H]3C/C(F)=C\CCN(C3=O)[C@@H](Cc3ccc(C)cc3)C(=O)N(C)CC(=O)N[C@@H](CCc3cc(F)c(C(F)(F)F)c(F)c3)C(=O)N2C1 [PP3513]	0.14	B (a compound having 3 or more and less than 10 is denoted as B)	8.6	B (a compound having 3 or more and less than 10 is denoted as B)
CCO[C@@H]1C[C@H]2C(=O)NC3(CCC3)C(=O)N(C)[C@@H](C3CCCC3)C(=O)N(C)[C@H](C(=O)N(C)C)CC(=O)N(C)[C@@H](CC(C)C)C(=O)N[C@@H]([C@@H](C)CC)C(=O)N(C)CC(=O)N(C)[C@H]3C/C(F)=C\CCN(C3=O)[C@@H](Cc3ccc(C(F)(F)F)cc3)C(=O)N(C)CC(=O)N[C@@H](CCc3cc(F)c(C(F)(F)F)c(F)c3)C(=O)N2C1 [PP3514]	0.17	B (a compound having 3 or more and less than 10 is denoted as B)	12.2	B (a compound having 3 or more and less than 10 is denoted as B)
